The text below walks through data of patent publication US12414952B2 (Merck Sharp & Dohme LLC, priority 2018, dated 2025).

The target of the test is human A2a adenosine receptor (Homo sapiens (Human), UniProt P29274). The experiment in a line: A2a binding affinity using radioligand binding, Method (A). To be noted: Method (A): [3H]SCH58261 filtration binding. The source says:
The A2a receptor affinity binding assay measured the amount of binding of a tritiated ligand with high affinity for the A2a adenosine receptor to membranes made from HEK293 or CHO cells recombinantly expressing the human A2a adenosine receptor, in the presence of varying concentrations of a compound of the invention. The data were generated using either filtration binding or a homogenous scintillation proximity assay (SPA).
Method (A): Measurement of A2a Binding Affinity Using Radioligand Binding
148 μL (5 μg/mL) membranes (Perkin Elmer, Cat. No. RBHA2aM400UA) and 2 μL compounds of the invention to be tested (test compound) were transferred to individual wells of a 96-well polypropylene assay plate and incubated for 15 to 30 min at room temperature. [^3H] SCH58261 ((7-(2-phenylethyl)-5-amino-2-(2-furyl)-pyrazolo-[4,3-e]-1,2,4-triazolo[1,5-c]pyrimidine)) was diluted in assay buffer (50 mM Tris pH 7.4, 10 mM MgCl2, 0.005% Tween20) to a concentration of 4 nM and 50 μL transferred to each well of the assay plate. […] The assay plate was incubated at room temperature for 60 min with agitation. […] Filtering was achieved by aspirating the contents of the assay plate for 5 sec, then washing and aspirating the contents three times with ice-cooled wash buffer (50 mM Tris-HCl pH 7.4, 150 mM NaCl) and allowing the vacuum manifold to dry the plate for […]. The filter plate was incubated for at least 1 h at 55° C. and allowed to dry. The bottom of the filter plate was sealed with backing tape. […] The plate was incubated for at least 20 min, and then the amount of radioactivity remaining in each well was determined using a TopCount® (Perkin Elmer) scintillation counter. After normalization to total and non-specific binding, the percent effect at each compound concentration was calculated. The plot of percent effect versus the log of compound concentration was analyzed electronically using a 4-parameter logistic fit based on the Levenberg-Marquardt algorithm to generate IC50 values.

Sequence of human A2a adenosine receptor (P29274 whole entry): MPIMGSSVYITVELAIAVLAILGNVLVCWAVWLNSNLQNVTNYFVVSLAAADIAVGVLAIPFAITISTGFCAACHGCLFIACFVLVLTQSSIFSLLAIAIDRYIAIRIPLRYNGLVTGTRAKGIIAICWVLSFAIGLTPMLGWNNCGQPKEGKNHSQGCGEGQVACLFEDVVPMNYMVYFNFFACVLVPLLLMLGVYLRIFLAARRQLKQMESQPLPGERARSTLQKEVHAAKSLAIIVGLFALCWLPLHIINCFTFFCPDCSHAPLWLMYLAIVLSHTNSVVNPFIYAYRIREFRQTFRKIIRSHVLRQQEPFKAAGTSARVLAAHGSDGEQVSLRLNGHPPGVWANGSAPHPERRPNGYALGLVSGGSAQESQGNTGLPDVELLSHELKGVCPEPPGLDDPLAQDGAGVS

`Nc1nc(-c2ncco2)cn2nc(Cc3ccccc3)nc12` [Example 1.2, 2-benzyl-6-(oxazol-2-yl)-[1,2,4]triazolo[1,5-a]pyrazin-8-amine] had a half-maximal inhibitory concentration (IC50) of 3.1 nM. In the case of `Cc1c(-c2nccs2)nc(N)c2nc(Cc3ccccc3)nn12` [Example 1.3] it was 1.3 nM; in that of `Cc1c(-c2ncccn2)nc(N)c2nc(Cc3ccccc3)nn12` [Example 1.4], 3.6 nM. Consider `Cc1nc2c(N)nc(-c3ncco3)cn2n1` [Example 1.5], for which the IC50 turned out to be 909 nM.

`Cc1nc2c(o1)CN(CCc1nc3c(C)c(-c4ncco4)nc(N)n3n1)C2` [Example 1.7]: the IC50 was determined as 7.4 nM. Compared with the last compound, the IC50 is about 120-fold lower. In the case of `Cc1nc2cc(-c3ncco3)nc(N)n2n1` [Example 1.9] it was 534 nM; in that of `Nc1nc(-c2ccc(F)cc2)cn2nc(Cc3ccccc3)nc12` [Example 2.3, 2-benzyl-6-(4-fluorophenyl)-[1,2,4]triazolo[1,5-a]pyrazin-8-amine], 2.5 nM; in that of `Nc1nc(-c2ccccc2)cn2nc(Cc3ccccc3)nc12` [Example 2.4], 1.6 nM.

`Cc1nc2c(N)nc(-c3ccccc3)cn2n1` [Example 2.5] registered an IC50 of 112 nM. Against the preceding compound, the IC50 is about 70-fold higher. Turning to `Cc1nc2c(N)nc(-c3ccc(F)cc3)cn2n1` [Example 2.6], the IC50 amounted to 523 nM. In the case of `Nc1nc(-c2cc(F)ccc2F)cn2nc(Cc3ccccc3)nc12` [Example 2.7] it was 2.2 nM. For `Cc1c(-c2ccc(F)cc2)nc(N)n2nc(CCN3CCn4c(cnc4C(C)C)C3)nc12` [Example 2.17] the value was 124 nM; for `Cc1nc2c(o1)CN(CCc1nc3c(C)c(-c4cnco4)nc(N)n3n1)C2` [Example 2.25], 26.7 nM. In the case of `Cc1c(-c2cccc(F)c2)nc(N)c2nc(Cc3ccccc3)nn12` [Example 3.3, 2-benzyl-6-(3-fluorophenyl)-5-methyl-[1,2,4]triazolo[1,5-a]pyrazin-8-amine] it was 1.1 nM; in that of `Cc1c(-c2cc(F)ccc2F)nc(N)c2nc(Cc3ccccc3)nn12` [Example 3.4], 1.1 nM; in that of `Cc1c(-c2ccccc2)nc(N)c2nc(Cc3ccccc3)nn12` [Example 3.5], 2.2 nM. Compound `Cc1c(-c2ccccc2F)nc(N)c2nc(Cc3ccccc3)nn12` [Example 3.6] returned a 50% inhibitory concentration (IC50) of 6.4 nM. With `COc1ccc(-c2nc(N)c3nc(Cc4ccccc4)nn3c2C)cc1Cl` [Example 3.7], the IC50 was determined as 11 nM. In the case of `COc1ccc(-c2nc(N)c3nc(Cc4ccccc4)nn3c2C)cc1F` [Example 3.8] it was 20.6 nM; in that of `Cc1c(-c2cncc(F)c2)nc(N)c2nc(Cc3ccccc3)nn12` [Example 3.9], 24.5 nM; in that of `Cc1c(-c2ccc(F)c(F)c2)nc(N)c2nc(Cc3ccccc3)nn12` [Example 3.10], 27.9 nM. In the case of `COc1cccc(-c2nc(N)c3nc(Cc4ccccc4)nn3c2C)c1F` [Example 3.11] it was 28.5 nM. In the case of `Cc1c(-c2ccc(Cl)c(Cl)c2)nc(N)c2nc(Cc3ccccc3)nn12` [Example 3.12] it was 38 nM; in that of `COc1ncc(-c2nc(N)c3nc(Cc4ccccc4)nn3c2C)cc1F` [Example 3.13], 40 nM. On to `COc1ccc(-c2nc(N)c3nc(Cc4ccccc4)nn3c2C)c(F)c1` [Example 3.14], for which the 50% inhibitory concentration (IC50) came out at 40.6 nM. This IC50 and that of the compound before are within 1.5-fold of each other. In the case of `Cc1cc(-c2nc(N)c3nc(Cc4ccccc4)nn3c2C)ccn1` [Example 3.15] it was 54.8 nM. For `Cc1c(-c2ccc(Cl)c(F)c2)nc(N)c2nc(Cc3ccccc3)nn12` [Example 3.16] the value was 73.9 nM; for `Cc1c(-c2ccc(F)cc2F)nc(N)c2nc(Cc3ccccc3)nn12` [Example 3.17], 82.2 nM. For `Cc1c(-c2ccc(Cl)cc2)nc(N)c2nc(Cc3ccccc3)nn12` [Example 3.18] the value was 84.4 nM; for `Cc1c(-c2ccc(OC(F)F)cc2)nc(N)c2nc(Cc3ccccc3)nn12` [Example 3.19], 121 nM; for `Cc1c(-c2cccc(C(F)(F)F)n2)nc(N)c2nc(Cc3ccccc3)nn12` [Example 3.20], 157 nM.

For orientation: IC50 means the concentration needed to halve the response being measured.
